In PubChem BioAssay (NCI):
Values joined by “and” are separate entries in the source; they are usually repeats but may differ in a detail not shown here. Identical values can stand only once.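 48-hour exposure; five concentrations; linearly interpolated endpoints. At the GI50, growth is halved. TGI: total growth inhibition.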

Columns and labels:
Experiment in all cases: DTP human tumour cell line panel, 48 h
DU-145 prostate = system: DU-145 prostate
BT-549 breast = system: BT-549 breast
PC-3 prostate = system: PC-3 prostate
HS 578T breast = system: HS 578T breast
MDA-MB-231 breast = system: MDA-MB-231 breast

| SMILES | GI50 (DU-145 prostate) | TGI (DU-145 prostate) | GI50 (BT-549 breast) | TGI (BT-549 breast) | GI50 (PC-3 prostate) | TGI (PC-3 prostate) | GI50 (HS 578T breast) | TGI (HS 578T breast) | GI50 (MDA-MB-231 breast) | TGI (MDA-MB-231 breast) |
| --- | --- | --- | --- | --- | --- | --- | --- | --- | --- | --- |
| CC(=O)Nc1ccc(S(=O)(=O)NNC(=O)c2cccnc2Nc2ccc(Cl)cc2)cc1 | 34.3 µM | > 100 µM | 25.2 µM | > 100 µM | 29.2 µM | > 100 µM | 23.9 µM | > 100 µM | 41.6 µM | > 100 µM |
| C=C1C(=O)O[C@H]2C[C@@]3(C)[C@H](O)CCC(=C)[C@@H]3[C@@H](OC(C)=O)[C@H]12 | – | 26.6 µM | – | 25 µM | – | 37.3 µM | – | 38.5 µM | – | 36.6 µM |
| O=C1CCCN1CC#CCN1CCCC1 | > 100 µM | > 100 µM | > 100 µM | > 100 µM | > 100 µM | > 100 µM | > 100 µM | > 100 µM | > 100 µM | > 100 µM |
| CC(C)Oc1cc(O)c2c(c1)OCC=C2CCC(=O)O | – | > 100 µM | – | > 100 µM | – | > 100 µM | – | > 100 µM | – | > 100 µM |
| COC(=O)CCCCCN=Cc1c(O)c(O)c(C(C)C)c2cc(C)c(-c3c(C)cc4c(C(C)C)c(O)c(O)c(C=NCCCCCC(=O)OC)c4c3O)c(O)c12 | 1.78 µM | 21.1 µM | 3 µM | > 32.5 µM | 1.03 µM | > 32.5 µM | 1.68 µM | > 32.5 µM | 1.36 µM | > 32.5 µM |
| COc1ccc(Cn2c(Cl)c(/C=C3/C(=O)Nc4ccccc43)c3cc(OC)c(C)cc32)cc1 | 18.1 µM | > 100 µM | 17.2 µM | > 100 µM | 6.22 µM | > 100 µM | 2.32 µM | > 100 µM | 4.22 µM | > 100 µM |
| Cc1nc(C(N)=S)sc1C(=O)C/C(=N/N)C(=O)Nc1cccc(Cl)c1C | – | – | – | > 100 µM | – | > 100 µM | – | > 100 µM | – | > 100 µM |
| COc1ccc(-c2cn[nH]c2-c2cc(OC)c3c(c2)OCCO3)cc1 | 0.312 µM | 16.9 µM | 0.494 µM | 22 µM | 0.128 µM | 39 µM | 0.231 µM | 34.4 µM | 0.179 µM | 10.9 µM |
| COC(=O)C1=C(C(=O)OC)SC(=C(Cl)C(=S)Sc2ccccc2N)S1 | 4.14 µM | 43.7 µM | 2.03 µM | 8.6 µM | 29.6 µM | > 100 µM | 19 µM | 66.2 µM | 16.6 µM | 42.9 µM |
| O=C1Nc2cccc3cc(NCC(O)CCl)cc1c23 (centres undefined) | – | > 100 µM | – | > 100 µM | – | > 100 µM | – | > 100 µM | – | > 100 µM |
| C/C(=N\NC(N)=S)c1nc2ccc(Cl)cc2[nH]1 | 1.97 µM | 8.8 µM | 3.57 µM | 14.3 µM | 4.05 µM | 48.2 µM | 12.2 µM | > 50 µM | 3.53 µM | 37.9 µM |
| COc1ccc(Cl)cc1Nc1nc(C(F)(F)F)ccc1C(=O)N/N=C/c1cc(OC)c(OC)c(OC)c1 | 4.27 µM | > 100 µM | 1.2 µM | 3.68 µM | 2.4 µM | 17.4 µM | 1.94 µM | 4.67 µM | 2.21 µM | 8.66 µM |
| CCCCCCN(CCCCCC)CC(O)c1ccc2c3c(cccc13)CC2 (centres undefined) | 11.6 µM | 24.7 µM | 13.5 µM | 28.1 µM | 10.9 µM | 28.7 µM | 10.8 µM | 27.2 µM | 6.86 µM | 21.3 µM |
| COc1ccc(CN2c3ccccc3CCc3ccccc32)cc1F | 0.481 µM | > 100 µM | 0.776 µM | 41.2 µM | 0.489 µM | > 100 µM | 0.487 µM | > 100 µM | 1.35 µM | 79.7 µM |
| Cc1cc(=O)oc2cc(O)c(CN(C)CC(=O)O)cc12 | – | > 100 µM | – | > 100 µM | – | > 100 µM | – | > 100 µM | – | > 100 µM |
| C[C@]12CC[C@@H]3c4ccc(O)cc4C(O)C[C@H]3[C@@H]1CCC2=O (some centres undefined) | > 100 µM | > 100 µM | > 100 µM | > 100 µM | > 100 µM | > 100 µM | > 100 µM | > 100 µM | > 100 µM | > 100 µM |
| Cc1c2ccc(N(C)c3ccnc(Nc4cccc(S(N)(=O)=O)c4)n3)cc2nn1C | 9.06 µM | > 25 µM | 9.48 µM | > 25 µM | 9.23 µM | > 25 µM | 6.8 µM | > 25 µM | 8.47 µM | > 25 µM |
| NC(=O)c1ccc(C2C3=C(CCCC3=O)OC3=C2C(=O)c2ccccc2C3=O)cc1 (centres undefined) | 0.465 µM | 1.59 µM | 0.642 µM | 2.03 µM | 0.285 µM | 1.86 µM | 1.13 µM | 5.49 µM | 0.323 µM | 1.54 µM |

| SMILES | GI50 (DU-145 prostate) | TGI (DU-145 prostate) | GI50 (BT-549 breast) | TGI (BT-549 breast) | GI50 (PC-3 prostate) | TGI (PC-3 prostate) | GI50 (HS 578T breast) | TGI (HS 578T breast) | GI50 (MDA-MB-231 breast) | TGI (MDA-MB-231 breast) |
| --- | --- | --- | --- | --- | --- | --- | --- | --- | --- | --- |
| Cn1cc(CNCC2CCN(c3ncc(C(=O)NO)cn3)CC2)c2ccccc21 | 0.0124 µM | 4.41 µM | 0.225 µM | 14.3 µM | 0.012 µM | 18 µM | 0.0185 µM | 42.6 µM | 0.04 µM | 5.58 µM |
| Cc1ccc(NC(=O)Cn2c(Br)nc3c2c(=O)n(C)c(=O)n3C)cc1 | 4.64 µM | 16.4 µM | 11.1 µM | 24 µM | 11.5 µM | 24.1 µM | 3.43 µM | 14.9 µM | 2.44 µM | 6.42 µM |
| Nc1ccc(S(=O)(=O)NCc2nccs2)cc1 | – | 95.5 µM | – | 45.3 µM | – | > 100 µM | – | 68.4 µM | – | 68.2 µM |
| CCOc1c(Cl)cc(CNC(C)C(O)c2ccccc2)cc1OC (centres undefined) | 37.6 µM | > 100 µM | 41.1 µM | > 100 µM | 30.7 µM | > 100 µM | 23.5 µM | 93 µM | 15.6 µM | 54.7 µM |
| Cc1cc(N/N=C/c2nc(-c3ccc(Cl)cc3)oc2C)c2cc(Cl)ccc2n1 | 2.45 µM | 6.9 µM | 8.61 µM | 21.1 µM | 2.1 µM | 4.81 µM | 3.42 µM | 14.7 µM | 3.25 µM | 10.3 µM |
| Cc1ccc(S(=O)(=O)N=Nc2c(O)[nH]c3c(Cl)cc(Cl)cc23)cc1 | – | – | – | > 100 µM | – | > 100 µM | – | > 100 µM | – | > 100 µM |
| CN(C)C(=O)O[C@@H]1CN[C@@H](C#Cc2cc3ncnc(Nc4ccc(OCc5cccc(F)c5)c(Cl)c4)c3s2)C1 | > 25 µM | > 25 µM | 7.93 µM | > 21.4 µM | 8.53 µM | > 25 µM | > 25 µM | > 25 µM | 6.6 µM | > 20 µM |
| Oc1ccccc1-c1nc2c3ccccc3c3ccccc3c2[nH]1 | 13.6 µM | 26.5 µM | 9.06 µM | 21.7 µM | 3.49 µM | 14.8 µM | 12.4 µM | 29.7 µM | 1.96 µM | 4.44 µM |
| CNC(=S)N/N=C/c1ccc([N+](=O)[O-])s1 | – | > 10 µM | – | > 10 µM | – | > 10 µM | – | > 10 µM | – | > 10 µM |
| CCC(c1cccc(O)c1)C(CC)c1cccc(O)c1 (centres undefined) | 11 µM | 29.9 µM | 1.09 µM | 14.3 µM | 2.28 µM | 12.5 µM | 1.96 µM | 9.77 µM | 6.21 µM | 19.6 µM |
| COc1cc(Cn2c(-c3nonc3N)nc3ccccc32)ccc1C | 0.605 µM | > 37.8 µM | 0.463 µM | 49.4 µM | 0.399 µM | > 100 µM | 0.326 µM | 24.4 µM | 1.02 µM | 38.1 µM |
| CCN(CC)CCCC(C)Nc1c2ccc(C)cc2nc2ccc(OC)cc12 (centres undefined) | 1.65 µM | 8.83 µM | 10.7 µM | 27.3 µM | 1.94 µM | 10.8 µM | 3.26 µM | 17.2 µM | 1.61 µM | 5.41 µM |
| O=C1CC(=O)OC(c2ccc([N+](=O)[O-])cc2)O1 | 1.63 µM | 3.2 µM | 2 µM | 3.87 µM | 2.36 µM | 6.43 µM | 2.7 µM | 11.9 µM | 2.21 µM | 5.09 µM |
| CCN(CC)CCNc1n[n+]([O-])c2ccccc2[n+]1[O-] | – | 48.4 µM and 47.9 µM | – | 34.2 µM and 74.1 µM | – | > 100 µM | – | 97.5 µM | 6.08 µM and 2.83 µM | 27.3 µM and 20.7 µM |
| Cc1cc(-c2nnc3n2CCCCC3)c(C)n1-c1ccc(Cl)c(Cl)c1 | 27.6 µM | > 100 µM | 7.1 µM | 20.3 µM | 11 µM | 57.1 µM | 16.9 µM | 47 µM | 15.2 µM | 33.5 µM |
| O=C1c2ccccc2-n2c1nc1ccccc1c2=O | – | 24 µM | – | 45.4 µM | – | > 60.1 µM | – | 45.2 µM | – | > 100 µM |
| Fc1cccc(Cl)c1/C=N\N=C1c2ccccc2-c2ccccc21 | – | > 100 µM | – | > 100 µM | – | > 100 µM | – | > 100 µM | – | > 100 µM |
